{
  "source": "patent US20260285850A1",
  "about": "“SUBSTITUTED OXAZOLIDINONES AND IMIDAZOLINONES AS HERBICIDES” (FMC CORPORATION, priority 2023, published 2026)",
  "type_in_all_cases": "in vivo",
  "key": {"[1]": {"test_system": "ryegrass, Italian (italian ryegrass, Lolium multiflorum)", "assay": "Test A preemergence soil spray, visual injury rating 0-100", "details": "10 days", "how_it_was_run": "(§1)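 Visual injury ratings (0, no effect; 100, complete control) were assigned relative to untreated plants 10 days after treatment. Test chemicals, formulated with a surfactant-containing non-phytotoxic solvent, were applied in loam-sand soil either as a directed soil spray before emergence or to emerged plants, and plants were kept in a greenhouse.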"}, "[2]": {"test_system": "blackgrass (Alopecurus myosuroides)", "assay": "Test A preemergence soil spray, visual injury rating 0-100", "details": "10 days", "how_it_was_run": "as §1"}, "soybean (Glycine max) [3]": {"test_system": "soybean (Glycine max)", "assay": "Test A preemergence soil spray, visual injury rating 0-100", "details": "10 days", "how_it_was_run": "as §1"}, "kochia (Bassia scoparia) [4]": {"test_system": "kochia (Bassia scoparia)", "assay": "Test A preemergence soil spray, visual injury rating 0-100", "details": "62 g ai/ha, 10 days, 0 = no effect, 100 = complete control", "how_it_was_run": "as §1"}, "[5]": {"test_system": "oat, wild (wild oat, Avena fatua)", "assay": "Test A preemergence soil spray, visual injury rating 0-100", "details": "10 days", "how_it_was_run": "as §1"}, "[6]": {"test_system": "ragweed (common ragweed, Ambrosia artemisiifolia)", "assay": "Test A preemergence soil spray, visual injury rating 0-100", "details": "10 days", "how_it_was_run": "as §1"}, "[7]": {"test_system": "palmer (palmer amaranth, palmer pigweed, Amaranthus palmeri)", "assay": "Test A preemergence soil spray, visual injury rating 0-100", "details": "10 days", "how_it_was_run": "as §1"}, "corn (Zea mays) [8]": {"test_system": "corn (Zea mays)", "assay": "Test A preemergence soil spray, visual injury rating 0-100", "details": "10 days", "how_it_was_run": "as §1"}, "[9]": {"test_system": "wheat (Triticum aestivum)", "assay": "Test A preemergence soil spray, visual injury rating 0-100", "details": "10 days", "how_it_was_run": "as §1"}, "[10]": {"test_system": "green foxtail (Setaria viridis)", "assay": "Test A preemergence soil spray, visual injury rating 0-100", "details": "10 days", "how_it_was_run": "as §1"}, "[11]": {"test_system": "barnyardgrass (Echinochloa crus-galli)", "assay": "Test A preemergence soil spray, visual injury rating 0-100", "details": "10 days", "how_it_was_run": "as §1"}, "[12]": {"test_system": "ryegrass, Italian (italian ryegrass, Lolium multiflorum)", "assay": "Test A postemergence application, visual injury rating 0-100", "how_it_was_run": "as §1"}, "[13]": {"test_system": "blackgrass (Alopecurus myosuroides)", "assay": "Test A postemergence application, visual injury rating 0-100", "how_it_was_run": "as §1"}, "soybean (Glycine max) [14]": {"test_system": "soybean (Glycine max)", "assay": "Test A postemergence application, visual injury rating 0-100", "how_it_was_run": "as §1"}, "kochia (Bassia scoparia) [15]": {"test_system": "kochia (Bassia scoparia)", "assay": "Test A postemergence application, visual injury rating 0-100", "how_it_was_run": "as §1"}, "[16]": {"test_system": "oat, wild (wild oat, Avena fatua)", "assay": "Test A postemergence application, visual injury rating 0-100", "how_it_was_run": "as §1"}, "[17]": {"test_system": "ragweed (common ragweed, Ambrosia artemisiifolia)", "assay": "Test A postemergence application, visual injury rating 0-100", "how_it_was_run": "as §1"}, "[18]": {"test_system": "galium (catchweed bedstraw, Galium aparine)", "assay": "Test A postemergence application, visual injury rating 0-100", "how_it_was_run": "as §1"}, "[19]": {"test_system": "palmer (palmer amaranth, palmer pigweed, Amaranthus palmeri)", "assay": "Test A postemergence application, visual injury rating 0-100", "how_it_was_run": "as §1"}, "corn (Zea mays) [20]": {"test_system": "corn (Zea mays)", "assay": "Test A postemergence application, visual injury rating 0-100", "how_it_was_run": "as §1"}, "[21]": {"test_system": "wheat (Triticum aestivum)", "assay": "Test A postemergence application, visual injury rating 0-100", "how_it_was_run": "as §1"}, "[22]": {"test_system": "green foxtail (Setaria viridis)", "assay": "Test A postemergence application, visual injury rating 0-100", "how_it_was_run": "as §1"}, "[23]": {"test_system": "horseweed (Erigeron canadensis)", "assay": "Test A postemergence application, visual injury rating 0-100", "how_it_was_run": "as §1"}, "[24]": {"test_system": "barnyardgrass (Echinochloa crus-galli)", "assay": "Test A postemergence application, visual injury rating 0-100", "how_it_was_run": "as §1"}, "[25]": {"test_system": "sedge, umbrella (small-flower umbrella sedge, Cyperus difformis)", "assay": "Test B flooded paddy test, visual plant response rating 0-100", "details": "250 g ai/ha, Flood, applied to paddy water, evaluated after 13 days", "how_it_was_run": "(§2)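 Greenhouse, 13 d. Seedlings at 2-leaf stage, pots flooded to 3 cm, compound delivered into floodwater, water level held constant. Evaluated visually relative to controls.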"}, "[26]": {"test_system": "barnyardgrass (Echinochloa crusgalli)", "assay": "Test B flooded paddy test, visual plant response rating 0-100", "details": "250 g ai/ha, Flood, applied to paddy water, evaluated after 13 days", "how_it_was_run": "as §2"}, "[27]": {"test_system": "ducksalad (Heteranthera limosa)", "assay": "Test B flooded paddy test, visual plant response rating 0-100", "details": "250 g ai/ha, Flood, applied to paddy water, evaluated after 13 days", "how_it_was_run": "as §2"}, "rice (Oryza sativa)": {"test_system": "rice (Oryza sativa)", "assay": "Test B flooded paddy test, visual plant response rating 0-100", "details": "250 g ai/ha, Flood, applied to paddy water, evaluated after 13 days", "how_it_was_run": "as §2"}, "[28]": {"details": "62 g ai/ha, 0 = no effect, 100 = complete control"}, "[29]": {"details": "62 g ai/ha, postemergence, 10 days, 0 = no effect, 100 = complete control"}, "[30]": {"details": "Postemergence, 16 g ai/ha, greenhouse 10 days, 0 no effect, 100 complete control"}},
  "data": [
    {"smiles": "CC(C)COC(=O)C1=CCC(NC(=O)C2(C)CN(c3cc(Cl)cc(Cl)c3)C(=O)O2)C1", "note": "(stereo not drawn) [Compound 155]", "values": [
      {"measurement": "Ryegrass, Italian plant response rating", "setting": "[1]; 16 g ai/ha, 0 to 100 scale", "value": 0},
      {"measurement": "Ryegrass, Italian plant response rating (0-100)", "setting": "[1]; [28]", "value": 0},
      {"measurement": "Blackgrass plant response rating", "setting": "[2]; 16 g ai/ha, 0 to 100 scale", "value": 0},
      {"measurement": "Blackgrass plant response rating (0-100)", "setting": "[2]; [28]", "value": 0},
      {"measurement": "Soybean plant response rating", "setting": "soybean (Glycine max) [3]; 16 g ai/ha, 0 to 100 scale", "value": 0},
      {"measurement": "Soybean plant response rating (0-100)", "setting": "soybean (Glycine max) [3]; [28]", "value": 0},
      {"measurement": "Kochia plant response rating (0-100)", "setting": "kochia (Bassia scoparia) [4]", "value": 20},
      {"measurement": "Oat, Wild plant response rating", "setting": "[5]; 16 g ai/ha, 0 to 100 scale", "value": 0},
      {"measurement": "Oat, Wild plant response rating (0-100)", "setting": "[5]; [28]", "value": 0},
      {"measurement": "Ragweed plant response rating", "setting": "[6]; 16 g ai/ha, 0 to 100 scale", "value": 0},
      {"measurement": "Ragweed plant response rating (0-100)", "setting": "[6]; [28]", "value": 0},
      {"measurement": "Pigweed, Palmer plant response rating", "setting": "[7]; 16 g ai/ha, 0 to 100 scale", "value": 0},
      {"measurement": "Pigweed, Palmer plant response rating (0-100)", "setting": "[7]; [28]", "value": 0},
      {"measurement": "Corn plant response rating", "setting": "corn (Zea mays) [8]; 16 g ai/ha, 0 to 100 scale", "value": 0},
      {"measurement": "Corn plant response rating (0-100)", "setting": "corn (Zea mays) [8]; [28]", "value": 0},
      {"measurement": "Wheat plant response rating", "setting": "[9]; 16 g ai/ha, 0 to 100 scale", "value": 0},
      {"measurement": "Wheat plant response rating (0-100)", "setting": "[9]; [28]", "value": 10},
      {"measurement": "Foxtail, Green plant response rating", "setting": "[10]; 16 g ai/ha, 0 to 100 scale", "value": 30},
      {"measurement": "Foxtail, Green plant response rating (0-100)", "setting": "[10]; [28]", "value": 30},
      {"measurement": "Barnyardgrass plant response rating", "setting": "[11]; 16 g ai/ha, 0 to 100 scale", "value": 0},
      {"measurement": "Barnyardgrass plant response rating (0-100)", "setting": "[11]; [28]", "value": 10},
      {"measurement": "Ryegrass, Italian plant response rating (0-100)", "setting": "[12]; [29]", "value": 0},
      {"measurement": "Ryegrass, Italian plant response rating (0 to 100 scale)", "setting": "[12]; [30]", "value": 0},
      {"measurement": "Blackgrass plant response rating (0-100)", "setting": "[13]; [29]", "value": 0},
      {"measurement": "Blackgrass plant response rating (0 to 100 scale)", "setting": "[13]; [30]", "value": 0},
      {"measurement": "Soybean plant response rating (0-100)", "setting": "soybean (Glycine max) [14]; [29]", "value": 20},
      {"measurement": "Soybean plant response rating (0 to 100 scale)", "setting": "soybean (Glycine max) [14]; [30]", "value": 0},
      {"measurement": "Kochia plant response rating (0-100)", "setting": "kochia (Bassia scoparia) [15]; [29]", "value": 40},
      {"measurement": "Kochia plant response rating (0 to 100 scale)", "setting": "kochia (Bassia scoparia) [15]; [30]", "value": 0},
      {"measurement": "Oat, Wild plant response rating (0-100)", "setting": "[16]; [29]", "value": 0},
      {"measurement": "Oat, Wild plant response rating (0 to 100 scale)", "setting": "[16]; [30]", "value": 0},
      {"measurement": "Ragweed plant response rating (0-100)", "setting": "[17]; [29]", "value": 30},
      {"measurement": "Ragweed plant response rating (0 to 100 scale)", "setting": "[17]; [30]", "value": 0},
      {"measurement": "Galium plant response rating (0-100)", "setting": "[18]; [29]", "value": 70},
      {"measurement": "Galium plant response rating (0 to 100 scale)", "setting": "[18]; [30]", "value": 0},
      {"measurement": "Pigweed, Palmer plant response rating (0-100)", "setting": "[19]; [29]", "value": 0},
      {"measurement": "Pigweed, Palmer plant response rating (0 to 100 scale)", "setting": "[19]; [30]", "value": 0},
      {"measurement": "Corn plant response rating (0-100)", "setting": "corn (Zea mays) [20]; [29]", "value": 0},
      {"measurement": "Corn plant response rating (0 to 100 scale)", "setting": "corn (Zea mays) [20]; [30]", "value": 0},
      {"measurement": "Wheat plant response rating (0-100)", "setting": "[21]; [29]", "value": 0},
      {"measurement": "Wheat plant response rating (0 to 100 scale)", "setting": "[21]; [30]", "value": 0},
      {"measurement": "Foxtail, Green plant response rating (0-100)", "setting": "[22]; [29]", "value": 20},
      {"measurement": "Foxtail, Green plant response rating (0 to 100 scale)", "setting": "[22]; [30]", "value": 0},
      {"measurement": "Horseweed plant response rating (0-100)", "setting": "[23]; [29]", "value": 0},
      {"measurement": "Horseweed plant response rating (0 to 100 scale)", "setting": "[23]; [30]", "value": 0},
      {"measurement": "Barnyardgrass plant response rating (0-100)", "setting": "[24]; [29]", "value": 10},
      {"measurement": "Barnyardgrass plant response rating (0 to 100 scale)", "setting": "[24]; [30]", "value": 0},
      {"measurement": "Plant response rating, Sedge, Umbrella (0 to 100 scale, 0 is no effect and 100 is complete control)", "setting": "[25]", "value": 0},
      {"measurement": "Plant response rating, Barnyardgrass (0 to 100 scale, 0 is no effect and 100 is complete control)", "setting": "[26]", "value": 0},
      {"measurement": "Plant response rating, Ducksalad (0 to 100 scale, 0 is no effect and 100 is complete control)", "setting": "[27]", "value": 0},
      {"measurement": "Plant response rating, Rice (0 to 100 scale, 0 is no effect and 100 is complete control)", "setting": "rice (Oryza sativa)", "value": 0}
    ]}
  ]
}
